Literature values in PubChem BioAssay AID1259409 (Chemical Carcinogenesis Research Information System (CCRIS), 2018).

System: rodent chemically induced tumor inhibition, incidence and multiplicity
Assay: CCRIS tumor inhibitor studies

## COc1cc(/C=C/C(=O)CC(=O)/C=C/c2ccc(O)c(OC)c2)ccc1O
Carcinogen: BENZO[A]PYRENE, 50-32-8, Dose [Inhibitor]: 0, 10 UMOL IN ACETONE APPLIED 120, 60 AND 5 MIN PRIOR TO CARCINOGEN DOSE (STUDY DURATION: 24 WK), Route [Inhibitor]: DERMAL, Species: MOUSE, Strain/Sex: CD-1/FEMALE, Target Tissue: Type of Lesion: SKIN: TUMORS, Dose [Carcinogen]: 200 NMOL ONCE, Promoter: 12-O-TETRADECANOYLPHORBOL-13-ACETATE, 16561-29-8
  tumour outcome (control, treated, inhibition, significance): 96%, 77%, 20%, not calculated
Carcinogen: METHYL(ACETOXYMETHYL)NITROSAMINE, 56856-83-8, Dose [Inhibitor]: 0, 5% IN DIET FOR DURATION OF STUDY BEGINNING 2 WK PRIOR TO CARCINOGEN TREATMENT (STUDY DURATION: 13 MO), Route [Inhibitor]: ORAL, Species: HAMSTER, Strain/Sex: SYRIAN/FEMALE, Target Tissue: Type of Lesion: ORAL: CAVITY, Dose [Carcinogen]: 2 MG/KG BW APPLIED TO RIGHT CHEEK POUCH 2/MO FOR 6 MO, Promoter: NONE USED
  tumour outcome (control, treated, inhibition, significance): 14/15 (93%), 3/16 (19%), 80%, p<0.001
Carcinogen: N-ETHYL-N'-NITRO-N-NITROSOGUANDINDE, 4245-77-6, Dose [Inhibitor]: 0, 1% COMMERCIAL GRADE CURCUMIN IN DIET FOR 16 WK BEGINNING 1 WK POST CARCINOGEN TREATMENT (STUDY DURATION: 20 WK), Route [Inhibitor]: ORAL, Species: MOUSE, Strain/Sex: C57BL/MALE, Target Tissue: Type of Lesion: DUODENUM: ADENOMA, Dose [Carcinogen]: 120 MG/L IN DRINKING WATER FOR 4 WK, Promoter: NONE USED
  tumour outcome (control, treated, inhibition, significance): 45%, 28%, 38%, not significant
Carcinogen: N-ETHYL-N'-NITRO-N-NITROSOGUANIDINE, 4245-77-6, Dose [Inhibitor]: 0, 0.5% COMMERCIAL GRADE CURCUMIN IN DIET FOR 16 WK BEGINNING 1 WK POST CARCINOGEN TREATMENT (STUDY DURATION: 20 WK), Route [Inhibitor]: ORAL, Species: MOUSE, Strain/Sex: C57BL/MALE, Target Tissue: Type of Lesion: DUODENUM: ADENOCARCINOMA, Dose [Carcinogen]: 120 MG/L IN DRINKING WATER FOR 4 WK, Promoter: NONE USED
  tumour outcome (control, treated, inhibition, significance): 6%, 4%, 33%, not significant
Carcinogen: N-ETHYL-N'-NITRO-N-NITROSOGUANIDINE, 4245-77-6, Dose [Inhibitor]: 0, 0.5% COMMERCIAL GRADE CURCUMIN IN DIET FOR 16 WK BEGINNING 1 WK POST CARCINOGEN TREATMENT (STUDY DURATION: 20 WK), Route [Inhibitor]: ORAL, Species: MOUSE, Strain/Sex: C57BL/MALE, Target Tissue: Type of Lesion: DUODENUM: ADENOMA, Dose [Carcinogen]: 120 MG/L IN DRINKING WATER FOR 4 WK, Promoter: NONE USED
  tumour outcome (control, treated, inhibition, significance): 45%, 20%, 56%, not significant
Carcinogen: N-ETHYL-N'-NITRO-N-NITROSOGUANIDINE, 4245-77-6, Dose [Inhibitor]: 0, 1% COMMERCIAL GRADE CURCUMIN IN DIET FOR 16 WK BEGINNING 1 WK POST CARCINOGEN TREATMENT (STUDY DURATION: 20 WK), Route [Inhibitor]: ORAL, Species: MOUSE, Strain/Sex: C57BL/MALE, Target Tissue: Type of Lesion: DUODENUM: ADENOCARCINOMA, Dose [Carcinogen]: 120 MG/L IN DRINKING WATER FOR 4 WK, Promoter: NONE USED
  tumour outcome (control, treated, inhibition, significance): 6%, 4%, 33%, not significant
Carcinogen: N-ETHYL-N'-NITRO-N-NITROSOGUANIDINE, 4245-77-6, Dose [Inhibitor]: 0, 2% COMMERCIAL GRADE CURCUMIN IN DIET FOR 16 WK BEGINNING 1 WK POST CARCINOGEN TREATMENT (STUDY DURATION: 20 WK), Route [Inhibitor]: ORAL, Species: MOUSE, Strain/Sex: C57BL/MALE, Target Tissue: Type of Lesion: DUODENUM: ADENOCARCINOMA, Dose [Carcinogen]: 120 MG/L IN DRINKING WATER FOR 4 WK, Promoter: NONE USED
  tumour outcome (control, treated, inhibition, significance): 6%, 5%, 17%, not significant
Carcinogen: N-ETHYL-N'-NITRO-N-NITROSOGUANIDINE, 4245-77-6, Dose [Inhibitor]: 0, 2% COMMERCIAL GRADE CURCUMIN IN DIET FOR 16 WK BEGINNING 1 WK POST CARCINOGEN TREATMENT (STUDY DURATION: 20 WK), Route [Inhibitor]: ORAL, Species: MOUSE, Strain/Sex: C57BL/MALE, Target Tissue: Type of Lesion: DUODENUM: ADENOMA, Dose [Carcinogen]: 120 MG/L IN DRINKING WATER FOR 4 WK, Promoter: NONE USED
  tumour outcome (control, treated, inhibition, significance): 45%, 27%, 40%, not significant
Carcinogen: N-METHYL-N'-NITRO-N-NITROSOGUANIDINE, 70-25-7, Route [Inhibitor]: 0, 0.05% IN DIET FOR 55 WK BEGINNING IMMEDIATELY POST-CARCINOGEN TREATMENT, THEN SWITCHED TO BASAL DIET FOR 4 WK (STUDY, Species: RAT, Strain/Sex: WISTAR/MALE, Target Tissue: Type of Lesion: GLANDULAR STOMACH: ADENOCARCINOMA, Dose [Carcinogen]: 100 PPM IN DRINKING WATER FOR 8 WK, Promoter: SODIUM CHLORIDE, 7647-14-5
  tumour outcome (control, treated, inhibition, significance): 1/29 (3%), 2/29 (7%), -133%, not significant
Carcinogen: N-METHYL-N'-NITRO-N-NITROSOGUANIDINE, 70-25-7, Route [Inhibitor]: 0, 0.2% IN DIET FOR 55 WK BEGINNING IMMEDIATELY POST-CARCINOGEN TREATMENT, THEN SWITCHED TO BASAL DIET FOR 4 WK (STUDY D, Species: RAT, Strain/Sex: WISTAR/MALE, Target Tissue: Type of Lesion: GLANDULAR STOMACH: ADENOCARCINOMA, Dose [Carcinogen]: 100 PPM IN DRINKING WATER FOR 8 WK, Promoter: SODIUM CHLORIDE, 7647-14-5
  tumour outcome (control, treated, inhibition, significance): 1/29 (3%), 2/30 (7%), -133%, not significant
Carcinogen: NONE USED, Dose [Inhibitor]: 0, 2% IN DIET FROM 12 MO OF AGE (STUDY DURATION: 15 MO), Route [Inhibitor]: ORAL, Species: MOUSE, Strain/Sex: C3H/FEMALE, Target Tissue: Type of Lesion: MAMMARY GLAND: TUMOR, Promoter: NONE USED
  tumour outcome (control, treated, inhibition, significance): 12/20 (60%), 8/18 (44%), 27%, not calculated
Carcinogen: NONE USED, Dose [Inhibitor]: 0, 5% IN DIET FROM 6 MO OF AGE (STUDY DURATION: 15 MO), Route [Inhibitor]: ORAL, Species: MOUSE, Strain/Sex: C3H/FEMALE, Target Tissue: Type of Lesion: MAMMARY GLAND: TUMOR, Promoter: NONE USED
  tumour outcome (control, treated, inhibition, significance): 12/20 (60%), 0/15 (0%), 100%, not calculated
Carcinogen: NONE USED, Dose [Inhibitor]: 0, 5% IN DIET FROM 8 MO OF AGE (STUDY DURATION: 15 MO), Route [Inhibitor]: ORAL, Species: MOUSE, Strain/Sex: C3H/FEMALE, Target Tissue: Type of Lesion: MAMMARY GLAND: TUMOR, Promoter: NONE USED
  tumour outcome (control, treated, inhibition, significance): 12/20 (60%), 7/21 (33%), 45%, not calculated
Carcinogen: NONE USED, Dose [Inhibitor]: O, 5% IN DIET FROM 12 MO OF AGE (STUDY DURATION: 15 MO), Route [Inhibitor]: ORAL, Species: MOUSE, Strain/Sex: C3H/FEMALE, Target Tissue: Type of Lesion: MAMMARY GLAND: TUMOR, Promoter: NONE USED
  tumour outcome (control, treated, inhibition, significance): 12/20 (60%), 5/17 (29%), 52%, not calculated
